Reference: patent US20230085307A1, “PYRIDAZINONE COMPOUND AND HERBICIDE” (NISSAN CHEMICAL CORPORATION, priority 2019, published 2023)

Tests used:
barnyard grass [1] = test: Test Example 4: herbicidal effect by soil treatment (Table 19, symbol H); assay type: in vivo, barnyard grass (Echinochloa crus-galli); conditions: amount of applied herbicide 320 g/ha
In short: (§1)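 Three weeks of greenhouse growth at 25° C. to 30° C. followed a uniform surface spray of water-diluted emulsion at a predetermined herbicide amount. Seeds had been sown beforehand under about 1.5 cm of sterilized diluvial soil. Grading followed criteria set out in an earlier test.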

lambsquarters [2] = test: Test Example 5: herbicidal effect by foliage application, plastic box (Table 20, symbol O); assay type: in vivo, lambsquarters (Chenopodium album); conditions: foliage application, AAH 320 g/ha, evaluated three weeks after application
In short: (§2)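 Plants sown in sterilized diluvial soil and grown 14 days in a greenhouse at 25° C to 30° C, then sprayed on the foliage with the compound's emulsion diluted in water to a predetermined herbicide amount. Injury to weeds and crops scored three weeks after application on a visual rating scale.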

green foxtail = test: Test Example 4: herbicidal effect by soil treatment (Table 19, symbol G); assay type: in vivo, green foxtail (Setaria viridis); conditions: amount of applied herbicide 320 g/ha
In short: as §1

barnyard grass [3] = test: Test Example 3: herbicidal effect by foliage application, Wagner pot (Table 18, symbol H); assay type: in vivo, barnyard grass (Echinochloa crus-galli); conditions: amount of applied herbicide 320 g/ha
In short: (§3)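 Plants were sown in alluvial soil held under 0.1–0.5 cm standing water and grown 14 days in a greenhouse at 25–30 °C. An emulsifiable formulation, water-diluted to the set dose, was then sprayed onto the foliage, and effects were scored three weeks later using previously defined criteria.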

wild oat [4] = test: Test Example 5: herbicidal effect by foliage application, plastic box (Table 20, symbol I); assay type: in vivo, wild oat (Avena fatua); conditions: foliage application, AAH 320 g/ha, evaluated three weeks after application
In short: as §2

persian speedwell = test: Test Example 5: herbicidal effect by foliage application, plastic box (Table 20, symbol R); assay type: in vivo, Persian speedwell (Veronica persica); conditions: foliage application, AAH 320 g/ha, evaluated three weeks after application
In short: as §2

rice flat sedge = test: Test Example 3: herbicidal effect by foliage application, Wagner pot (Table 18, symbol E); assay type: in vivo, rice flat sedge (Cyperus iria); conditions: amount of applied herbicide 320 g/ha
In short: as §3

redroot pigweed [5] = test: Test Example 5: herbicidal effect by foliage application, plastic box (Table 20, symbol N); assay type: in vivo, redroot pigweed (Amaranthus retroflexus); conditions: foliage application, AAH 320 g/ha, evaluated three weeks after application
In short: as §2

barnyard grass [6] = test: Test Example 5: herbicidal effect by foliage application, plastic box (Table 20, symbol H); assay type: in vivo, barnyard grass (Echinochloa crus-galli); conditions: foliage application, AAH 320 g/ha, evaluated three weeks after application
In short: as §2

windgrass = test: Test Example 5: herbicidal effect by foliage application, plastic box (Table 20, symbol L); assay type: in vivo, windgrass (Apera spica-venti); conditions: foliage application, AAH 320 g/ha, evaluated three weeks after application
In short: as §2

southern crabgrass [7] = test: Test Example 4: herbicidal effect by soil treatment (Table 19, symbol F); assay type: in vivo, southern crabgrass (Digitaria ciliaris); conditions: amount of applied herbicide 320 g/ha
In short: as §1

late watergrass = test: Test Example 2: herbicidal activity, application during weed generation under submerged conditions (Table 17, symbol A); assay type: in vivo, late watergrass (Echinochloa oryzicola); conditions: AAH 320 g/ha; application during weed generation, submerged conditions
In short: (§4)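 In this pot test, flooded alluvial soil (water depth 4 cm) holds all three species sown as a mixture. Once seedlings have one to two leaves, the compound's emulsion, thinned with water to the intended dose, is poured on the water; grading follows after three weeks on the earlier criteria.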

chickweed = test: Test Example 4: herbicidal effect by soil treatment (Table 19, symbol P); assay type: in vivo, common chickweed (Stellaria media); conditions: amount of applied herbicide 320 g/ha
In short: as §1

Japanese bulrush = test: Test Example 2: herbicidal activity, application during weed generation under submerged conditions (Table 17, symbol B); assay type: in vivo, Japanese bulrush (Schoenoplectus juncoides); conditions: AAH 320 g/ha; application during weed generation, submerged conditions
In short: as §4

redroot pigweed [8] = test: Test Example 4: herbicidal effect by soil treatment (Table 19, symbol N); assay type: in vivo, redroot pigweed (Amaranthus retroflexus); conditions: amount of applied herbicide 320 g/ha
In short: as §1

wild oat [9] = test: Test Example 4: herbicidal effect by soil treatment (Table 19, symbol I); assay type: in vivo, wild oat (Avena fatua); conditions: amount of applied herbicide 320 g/ha
In short: as §1

lambsquarters [10] = test: Test Example 4: herbicidal effect by soil treatment (Table 19, symbol O); assay type: in vivo, lambsquarters (Chenopodium album); conditions: amount of applied herbicide 320 g/ha
In short: as §1

velvetleaf = test: Test Example 4: herbicidal effect by soil treatment (Table 19, symbol M); assay type: in vivo, velvetleaf (Abutilon theophrasti); conditions: amount of applied herbicide 320 g/ha
In short: as §1

Italian ryegrass [11] = test: Test Example 5: herbicidal effect by foliage application, plastic box (Table 20, symbol K); assay type: in vivo, Italian ryegrass (Lolium multiflorum); conditions: foliage application, AAH 320 g/ha, evaluated three weeks after application
In short: as §2

blackgrass = test: Test Example 5: herbicidal effect by foliage application, plastic box (Table 20, symbol J); assay type: in vivo, blackgrass (Alopecurus myosuroides); conditions: foliage application, AAH 320 g/ha, evaluated three weeks after application
In short: as §2

Italian ryegrass [12] = test: Test Example 4: herbicidal effect by soil treatment (Table 19, symbol K); assay type: in vivo, Italian ryegrass (Lolium multiflorum); conditions: amount of applied herbicide 320 g/ha
In short: as §1

southern crabgrass [13] = test: Test Example 5: herbicidal effect by foliage application, plastic box (Table 20, symbol F); assay type: in vivo, southern crabgrass (Digitaria ciliaris); conditions: foliage application, AAH 320 g/ha, evaluated three weeks after application
In short: as §2

Structure (SMILES)	herbicidal effect on H: barnyard grass (barnyard grass [1])	O: lambsquarters, herbicidal effect (criteria 0-5) (lambsquarters [2])	herbicidal effect on G: green foxtail (green foxtail)	herbicidal effect on H: barnyard grass (barnyard grass [3])	I: wild oat, herbicidal effect (criteria 0-5) (wild oat [4])	R: persian speedwell, herbicidal effect (criteria 0-5) (persian speedwell)	herbicidal effect on E: rice flat sedge (rice flat sedge)	N: redroot pigweed, herbicidal effect (criteria 0-5) (redroot pigweed [5])	H: barnyard grass, herbicidal effect (criteria 0-5) (barnyard grass [6])	L: windgrass, herbicidal effect (criteria 0-5) (windgrass)	herbicidal effect on F: southern crabgrass (southern crabgrass [7])	herbicidal effect rating, A: late watergrass (late watergrass)	herbicidal effect on P: chickweed (chickweed)	herbicidal effect rating, B: Japanese bulrush (Japanese bulrush)	herbicidal effect on N: redroot pigweed (redroot pigweed [8])	herbicidal effect on I: wild oat (wild oat [9])	herbicidal effect on O: lambsquarters (lambsquarters [10])	herbicidal effect on M: velvetleaf (velvetleaf)	K: Italian ryegrass, herbicidal effect (criteria 0-5) (Italian ryegrass [11])	J: blackgrass, herbicidal effect (criteria 0-5) (blackgrass)	further results
CC(=O)c1ccc(-c2sc3ccc(F)cc3c2-c2c(O)c(C)nn(C)c2=O)cc1 [2-339]	0 (Herbicidal rate of 5% or less (almost no effect))	4 (Herbicidal rate of 70% or more and less than 90%)	0 (Herbicidal rate of 5% or less (almost no effect))	5 (Herbicidal rate of 90% or more (almost completely withered))	3 (Herbicidal rate of 40% or more and less than 70%)	5 (Herbicidal rate of 90% or more (almost completely withered))	4 (Herbicidal rate of 70% or more and less than 90%)	5 (Herbicidal rate of 90% or more (almost completely withered))	3 (Herbicidal rate of 40% or more and less than 70%)	5 (Herbicidal rate of 90% or more (almost completely withered))	0 (Herbicidal rate of 5% or less (almost no effect))	3 (Herbicidal rate of 40% or more and less than 70%)	3 (Herbicidal rate of 40% or more and less than 70%)	3 (Herbicidal rate of 40% or more and less than 70%)	4 (Herbicidal rate of 70% or more and less than 90%)	0 (Herbicidal rate of 5% or less (almost no effect))	4 (Herbicidal rate of 70% or more and less than 90%)	5 (Herbicidal rate of 90% or more (almost completely withered))	5 (Herbicidal rate of 90% or more (almost completely withered))	1 (Herbicidal rate of 5% or more and less than 20%)	herbicidal effect on K: Italian ryegrass (Italian ryegrass [12]): 4 (Herbicidal rate of 70% or more and less than 90%); F: southern crabgrass, herbicidal effect (criteria 0-5) (southern crabgrass [13]): 3 (Herbicidal rate of 40% or more and less than 70%)
Cc1nn(C)c(=O)c(-c2c(-c3ccc([N+](=O)[O-])cc3)sc3ccc(F)cc23)c1O [2-341]	3 (Herbicidal rate of 40% or more and less than 70%)	5 (Herbicidal rate of 90% or more (almost completely withered))	4 (Herbicidal rate of 70% or more and less than 90%)	4 (Herbicidal rate of 70% or more and less than 90%)	4 (Herbicidal rate of 70% or more and less than 90%)	5 (Herbicidal rate of 90% or more (almost completely withered))	3 (Herbicidal rate of 40% or more and less than 70%)	5 (Herbicidal rate of 90% or more (almost completely withered))	4 (Herbicidal rate of 70% or more and less than 90%)	4 (Herbicidal rate of 70% or more and less than 90%)	5 (Herbicidal rate of 90% or more (almost completely withered))	3 (Herbicidal rate of 40% or more and less than 70%)	4 (Herbicidal rate of 70% or more and less than 90%)	3 (Herbicidal rate of 40% or more and less than 70%)	5 (Herbicidal rate of 90% or more (almost completely withered))	3 (Herbicidal rate of 40% or more and less than 70%)	4 (Herbicidal rate of 70% or more and less than 90%)	3 (Herbicidal rate of 40% or more and less than 70%)	5 (Herbicidal rate of 90% or more (almost completely withered))	4 (Herbicidal rate of 70% or more and less than 90%)	herbicidal effect on K: Italian ryegrass (Italian ryegrass [12]): 5 (Herbicidal rate of 90% or more (almost completely withered)); F: southern crabgrass, herbicidal effect (criteria 0-5) (southern crabgrass [13]): 5 (Herbicidal rate of 90% or more (almost completely withered))
